Where a chain is given by its changes, count along the chain named.
Assays:
[1] = system: ΔMGMT transduced CD34^+ cells; test: Clonogenic progenitor survival after BG and BCNU, ΔMGMT transduced CD34+ cells
Procedure: (§1) CD34^+ Transduction--Peripheral blood mononuclear cells were obtained by apheresis from patients treated with cyclophosphamide and G-CSF. CD34^+ progenitors were isolated using the Ceprate SC Stem Cell Concentrator (Cell Pro, Bothell, Wash.) according to manufacturer's directions. Briefly, cells were washed and incubated with biotinylated anti-CD34 antibody, passed over an avidin column and the bound fraction eluted by gentle agitation. […] At 48 hours, half of the media was removed, cells were pelleted and resuspended in fresh, supplemented media, and non-adherent cells were collected at 96 hours.
(§2) BCNU was dissolved in 100% ethanol and diluted to 10 mM with serum free media and immediately added to the cells. Following a two hour incubation at 37° C., cells were incubated in methylcellulose (Stem Cell Technologies, Inc.) containing either SCF, IL3, hemin, erythropoietin, GM-CSF (for CD34^+ cells) or GM-CSF and IL-3 (for K562 cells) in triplicate. […] After incubation for 7-10 days at 37° C. colonies were enumerated and survival was analyzed at each BCNU dose.

[2] = system: untransduced K562 cells; test: Clonogenic survival in methylcellulose after BG and BCNU, untransduced K562 cells; assay type: cell-based; settings: Homo sapiens
[3] = system: CHO cells expressing control or mutant AGT; test: Colony forming assay, killing by BCNU of transfected CHO cells expressing control or mutant AGT; assay type: cell-based, Chinese hamster; settings: up to 100 μM BCNU, highest concentration tested
Procedure: (§3) Control CHO cells (.tangle-solidup.) and CHO cells expressing human AGT (.smallcircle.) or its mutants P140A (.circle-solid.) and G156A (.quadrature.) were treated with BCNU at the concentration shown for 2 h. The medium was then replaced. After 16-18 h, the cells were replated as described in Example Section 6 and colonies were counted 7-8 days later.
(§4) Cytotoxicity assays--Cell killing was determined using a colony forming assay (Pegg, et al., 1995, Biochem. Pharmacol. 50: 1141-1148; Dolan, et al., 1986, Cancer Res. 46: 4500-4504). The cells were plated using 10^6 cells per 25 cm^2 flask and grown for 24 h. After 2 h of incubation with either BG or 5-nitroso-BP, 80 μM BCNU was added for 2 h. The medium was then replaced with fresh medium also containing the AGT inactivator and the cells were left at 37° C. for an additional 16-18 h. The cells were then replated at densities of 100 to 1000 cells per 25 cm^2 flask and grown for 7-8 days until discrete colonies could be stained and counted. The colonies were washed with 0.9% saline and stained with crystal violet and counted.

[4] = system: ΔMGMT transduced K562 cells; test: Clonogenic survival in methylcellulose after BG and BCNU, ΔMGMT transduced K562 cells; assay type: cell-based, human
[5] = system: lac Z transduced hematopoietic progenitor cells; test: Clonogenic progenitor survival after BG and BCNU, lac Z transduced CD34+ cells; settings: 10 μM BG and 10 μM BCNU, lac Z transduced progenitors
Procedure: as §1, §2

[6] = system: wtMGMT transduced K562 cells; test: Clonogenic survival in methylcellulose after BG and BCNU, wtMGMT transduced K562 cells; assay type: cell-based, human
[7] = system: Control CHO cells; test: Colony forming assay, killing of control CHO cells by BCNU; assay type: cell-based, Chinese hamster; settings: 2 h, after 80 μM BCNU, read-out: survival
Procedure: as §3, §4

[8] = target: T1, AGT (Homo sapiens, UniProt P16455); test: In vitro screen of potential AGT-inhibiting BG analogs; settings: versus BG and BGs modified at the benzyl ring
T1 sequence (P16455 1-207): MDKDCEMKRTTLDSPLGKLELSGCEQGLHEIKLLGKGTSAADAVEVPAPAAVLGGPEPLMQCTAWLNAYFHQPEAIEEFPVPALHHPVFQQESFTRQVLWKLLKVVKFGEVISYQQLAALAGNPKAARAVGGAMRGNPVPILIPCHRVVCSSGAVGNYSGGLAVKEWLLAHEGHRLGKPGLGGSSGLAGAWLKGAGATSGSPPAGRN
Source text: (§5) Another embodiment of the present invention relates to the use of a mutant AGT protein, preferably a human AGT protein, resistant to inactivation by a compound shown to inactivate or at least substantially inactivate the DNA repair function of wild type AGT which include, but again are in no way limited to the O^6 -substituted guanosine and 2' deoxyguanisine compounds disclosed in U.S. Pat. No. 5,352,669 issued to Moschel, et al. on Oct. 4, 1994. […] Furthermore, escalation of the dBG dose was not restricted by solubility as with BG. Therefore, this class of compounds, as exemplified by dBG, will be useful in practicing the present invention whereby the skilled artisan identifies a related AGT mutant which imparts resistance to addition of dBG both in vitro and in vivo.

[9] = Solubility in aqueous media; assay type: physicochemical
Source text: as §5

[10] = system: xenograft; test: In vivo xenograft system, potentiation of BCNU
Source text: as §5

[11] = target: T1, AGT; test: Inactivation of cellular AGT in CHO cells expressing human AGT (CHO-AGT); assay type: cell-based; set-up: expressed in transfected cells; host or cells: Chinese hamster ovary (CHO) cells; settings: read-out: Inactivation of AGT, ED50 after 4 h exposure
Procedure: (§6) The cells were then harvested and the AGT activity determined.
(§7) AGT activity assays--Extracts were prepared and AGT activity was determined as described by Dolan et al. (Dolan, et al., 1990, Proc. Natl. Acad. Sci. U.S.A. 87: 5368-5372) by incubation for 30 min at 37° C. with a [^3 H]methylated calf thymus DNA substrate prepared by reaction of DNA with N-[^3 H]methyl-N-nitrosourea (Amersham Inc., Arlington Hts., Ill.). The AGT activity of the cells was then expressed as fmol of O^6 -methylguanine removed per mg of protein present in the cell extracts. Protein was determined by the method of Bradford (Bradford, 1976, Anal. Biochem. 72: 248-254). […] After 4 h exposure, the cells were harvested and washed with PBS. Cell pellets were stored at -80° C. until assayed. Extracts were then prepared and AGT activity determined. The results were expressed as the percentage of the AGT activity present in cultures to which no drug was added.

[12] = system: CHO cells expressing mutant AGTs; test: Effect of AGT inhibitors alone on colony formation; assay type: cell-based, Chinese hamster; settings: inhibitor alone, 18-20 h, cells expressing G156A
Procedure: FIG. 5 show the effect of different concentrations of BG and 5-nitroso-BP on colony formation. BG was added to CHO cells expressing mutant AGTs P140 (.circle-solid.) and G156A (.quadrature.) and 5-nitroso-BP was added to cells expressing G156A (.box-solid.) for 18-20 h. The cells were then replated as described in materials and methods and colonies were counted 7-8 days later.
as §4

[13] = system: CHO cells expressing control AGT; test: Sensitization to killing by 80 μM BCNU, colony forming assay, CHO cells expressing control AGT; assay type: cell-based, Chinese hamster; settings: with 80 μM BCNU
Procedure: (§8) FIG. 6a and FIG. 6b show the effect of different concentrations of BG (FIG. 6a) and 5-nitroso-BP (FIG. 6b) on killing of cells by BCNU. Cells were treated with BG or 5-nitroso-BP at the concentrations indicated for 2 h and BCNU at 80 μM was added for 2 h. Medium was replaced with fresh medium also containing the AGT inhibitor but not BCNU for the period of 18 h. The cells were then replated as described in materials and methods and colonies were counted 7-8 days later.
as §4

[14] = system: CHO cells expressing G156A AGT; test: Sensitization to killing by 80 μM BCNU, colony forming assay, CHO cells expressing G156A AGT; assay type: cell-based, Chinese hamster
Procedure: as §8, §4

[15] = target: T2, human AGT mutant P140A (Homo sapiens, UniProt P16455, P140A); test: Inactivation of cellular AGT in CHO cells expressing mutant P140A (CHO-P140A); assay type: cell-based; settings: for Increase of ED50 with P140A AGT: relative to control AGT in CHO cells, 240 min
T2 construct: expressed in transfected cells; host or cells: Chinese hamster ovary (CHO) cells
T2 sequence (P16455 1-207 P140A): T1 sequence (P16455 1-207) with P140A
Procedure: as §6, §7

[16] = system: AGT; settings: HT29 cells; read-out: Inactivation of AGT, ED50 after 4 h exposure; cited from earlier work
[17] = target: T3, human AGT mutant G156A (Homo sapiens, UniProt P16455, G156A); test: Inactivation of cellular AGT in CHO cells expressing mutant G156A (CHO-G156A); assay type: cell-based; settings: for Increase of ED50 with G156A AGT: relative to control AGT in CHO cells, 240 min
T3 construct: expressed in transfected cells; host or cells: Chinese hamster ovary (CHO) cells
T3 sequence (P16455 1-207 G156A): T1 sequence (P16455 1-207) with G156A
Procedure: as §6, §7

[18] = system: CHO cells expressing P140A AGT; test: Sensitization to killing by 80 μM BCNU, colony forming assay, CHO cells expressing P140A AGT; assay type: cell-based, Chinese hamster; settings: with 80 μM BCNU
Procedure: as §8, §4

[19] = target: T4, wtAGT (Homo sapiens, UniProt P16455); test: BG inactivation of AGT in wtMGMT transduced K562 cells; settings: 5 μM BG
T4 sequence (P16455 1-207): T1 sequence (P16455 1-207)
Procedure: (§9) AGT Assay--AGT activity was measured as [^3 H]-methyl groups removed from [^3 H] O^6 -methylguanine present in [^3 H]-methylnitrosourea treated alkylated calf thymus DNA. The alkylated [^3 H-methyl] O^6 methylguanine and N^7 methylguanine bases were separated by HPLC and quantified by liquid scintillation. AGT activity was expressed as fmol O^6 mG removed/μg DNA or fmol O^6 removed/mgprotein.

[20] = target: T5, ΔAGT (G156A) (Homo sapiens, UniProt P16455, G156A); test: cell-based; settings: K562, read-out: AGT activity retained
T5 sequence (P16455 1-207 G156A): T1 sequence (P16455 1-207) with G156A
Procedure: as §9

[21] = Homo sapiens, K562, read-out: BCNU IC50, clonogenic survival
[22] = Homo sapiens, K562, read-out: BCNU IC90, clonogenic survival

Q: For `O=NN(CCCl)C(=O)NCCCl` [BCNU, N,N'-bis(2-cholorethyl)-N-nitrosourea], which cells resistant ([1]; 10 μM BG and 10 μM BCNU, ΔMGMT transduced CD34+) is on record?
A: The cells resistant was “approximately 25%”.

Q: And the “colonies very resistant to BG & BCNU” value ([1]; ΔMGMT transduced CD34+ derived colonies)?
A: Its value is “Over 30%”.

Q: What about the IC50 ([2]; K562, read-out: BCNU IC50, clonogenic survival) of the same compound?
A: The IC50 was 1.3 µM.

Q: And the IC90 ([2]; K562, read-out: BCNU IC90, clonogenic survival)?
A: The IC90 was 5 µM.

Q: What about the “killing by BCNU” value [3] of the same compound?
A: The value was “completely resistant”.

Q: What about the clonogenic survival ([4]; 30 μM BCNU & BG, ΔMGMT K562 cells) of the same compound?
A: The clonogenic survival was 20%.

Q: What about the IC50 [4, 21] of the same compound?
A: Its IC50 is 11.3 µM.

Q: What about the IC90 [4, 22] of the same compound?
A: Its IC90 is greater than 30 µM.

Q: What about the cells killed [5] of the same compound?
A: Its cells killed is “greater than 99%”.

Q: And the clonogenic survival ([6]; 30 μM BCNU & BG, wtMGMT K562 cells)?
A: The clonogenic survival was less than 1%.

Q: What about the IC50 [6, 21] of the same compound?
A: Its IC50 is 4 µM.

Q: What about the IC90 [6, 22] of the same compound?
A: Its IC90 is 16 µM.

Q: And the viability at 80 µM [7]?
A: Its viability at 80 µM is less than 0.1%.

Q: With `Nc1nc(OCc2ccccc2)c2ncn([C@H]3C[C@H](O)[C@@H](CO)O3)c2n1` [dBG] as the compound, how does the “potency relative to BG (less potent)” value [8] read?
A: The value was 10 fold.

Q: And the “solubility in aqueous media compared to other BGs” value [9]?
A: The value was “superior solubility”.

Q: And the “BCNU-potentiating effects compared with BG” value [10]?
A: The value was “quite comparable”.

Q: With `Nc1nc(N)c(N=O)c(OCc2ccccc2)n1` [5-nitroso-BP, 2,4-diamino-6benzyloxy-5-nitrosopyrimidine] as the compound, how does the IC50 [11] read?
A: Its IC50 is 0.05 µM.

Q: What about the “concentrations reducing colony formation” value [12] of the same compound?
A: The value was “above 30 μM”.

Q: And the “concentration required to reduce colony formation to <1 per 1000 cells plated” value [13]?
A: Its value is “about 5 μM”.

Q: And the “concentration required to sensitize cells to BCNU” value ([14]; with 80 μM BCNU)?
A: The value was greater than 40 µM.

Q: And the IC50 ([15]; CHO-P140A cells, read-out: Inactivation of AGT, ED50 after 4 h exposure)?
A: The IC50 was 1.25 µM.

Q: And the “Increase of ED50 with P140A AGT” value [15]?
A: Its value is 25 fold.

Q: What about the IC50 [16] of the same compound?
A: Its IC50 is 0.02 µM.

Q: What about the IC50 ([17]; CHO-G156A cells, read-out: Inactivation of AGT, ED50 after 4 h exposure) of the same compound?
A: The IC50 was 5 µM.

Q: What about the “Increase of ED50 with G156A AGT” value [17] of the same compound?
A: Its value is 100 fold.

Q: What about the “concentration needed to reduce colony formation to <1 per 1000 cells plated” value [18] of the same compound?
A: Its value is “More than 25 μM”.

Q: For `Nc1nc(OCc2ccccc2)c2[nH]cnc2n1` [BG, O^6 -benzylguanine], which AGT activity [19] is on record?
A: The AGT activity was “undetectable”.

Q: What about the activity at 5 µM [20] of the same compound?
A: Its activity at 5 µM is greater than 90%.

Q: And the “concentration required to reduce colony formation to <1 per 1000 cells plated” value [13]?
A: Its value is 50 µM.

Q: And the “survival under combined BG and BCNU” value ([14]; 350 μM BG with 80 μM BCNU)?
A: The value was “substantial survival”.

Q: And the “Increase of ED50 with P140A AGT” value [15]?
A: Its value is 30 fold.

Q: And the IC50 [16]?
A: Its IC50 is 0.05 µM.

Q: What about the “Increase of ED50 with G156A AGT” value [17] of the same compound?
A: The value was 60 fold.

Q: And the “concentration needed to reduce colony formation to <1 per 1000 cells plated” value [18]?
A: The value was 200 µM.
